Experiments:
[1] = molecular target: T1, Muscarinic acetylcholine receptor M4 (Homo sapiens, UniProt P08173); assay type: cell membranes, CHO-K1, Membrane; conditions: cho-k1; also: in other assays of this panel Not Active means under 50% inhibition at 10 µM
T1 sequence (P08173 whole entry): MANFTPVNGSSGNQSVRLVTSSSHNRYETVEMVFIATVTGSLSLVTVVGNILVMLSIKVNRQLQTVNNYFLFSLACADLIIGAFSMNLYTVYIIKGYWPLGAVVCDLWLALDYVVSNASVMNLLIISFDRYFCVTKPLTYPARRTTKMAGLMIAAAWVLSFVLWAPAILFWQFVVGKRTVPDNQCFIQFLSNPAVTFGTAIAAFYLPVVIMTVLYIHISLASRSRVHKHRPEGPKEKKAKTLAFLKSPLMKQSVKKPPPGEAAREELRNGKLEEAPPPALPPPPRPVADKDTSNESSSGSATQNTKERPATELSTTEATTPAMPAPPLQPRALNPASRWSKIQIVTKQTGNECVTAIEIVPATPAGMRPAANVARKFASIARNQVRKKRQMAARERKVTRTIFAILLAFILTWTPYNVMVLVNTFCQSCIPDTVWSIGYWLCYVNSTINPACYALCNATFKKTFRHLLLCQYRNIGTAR

Neutrophil elastase = molecular target: T2, Neutrophil elastase (Homo sapiens, UniProt P08246); assay type: tissue-based;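 also: inhibition of neutrophil elastase enzyme activity, measured with a p-nitroanilide-linked peptide substrate; in other assays of this panel Not Active means under 50% inhibition at 10 µM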
T2 sequence (P08246 whole entry): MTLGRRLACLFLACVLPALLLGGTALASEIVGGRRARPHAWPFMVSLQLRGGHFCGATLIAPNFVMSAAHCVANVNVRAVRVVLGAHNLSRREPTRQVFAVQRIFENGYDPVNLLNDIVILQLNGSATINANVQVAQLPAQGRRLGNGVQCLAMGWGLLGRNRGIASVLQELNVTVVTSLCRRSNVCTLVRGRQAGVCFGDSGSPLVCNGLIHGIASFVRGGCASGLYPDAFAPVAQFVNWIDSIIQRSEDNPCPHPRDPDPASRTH

[2] = molecular target: Tyrosine-protein kinase Fyn (Homo sapiens, UniProt P06241); assay: biochemical; assay type: cell-based, Insect cells; conditions: insect cells;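 also: enzymatic inhibition of Fyn kinase activity measured with Poly(Glu:Tyr) as the phosphorylation substrate; in other assays of this panel Not Active means under 50% inhibition at 10 µM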
Chain of Tyrosine-protein kinase Fyn (P06241 whole entry): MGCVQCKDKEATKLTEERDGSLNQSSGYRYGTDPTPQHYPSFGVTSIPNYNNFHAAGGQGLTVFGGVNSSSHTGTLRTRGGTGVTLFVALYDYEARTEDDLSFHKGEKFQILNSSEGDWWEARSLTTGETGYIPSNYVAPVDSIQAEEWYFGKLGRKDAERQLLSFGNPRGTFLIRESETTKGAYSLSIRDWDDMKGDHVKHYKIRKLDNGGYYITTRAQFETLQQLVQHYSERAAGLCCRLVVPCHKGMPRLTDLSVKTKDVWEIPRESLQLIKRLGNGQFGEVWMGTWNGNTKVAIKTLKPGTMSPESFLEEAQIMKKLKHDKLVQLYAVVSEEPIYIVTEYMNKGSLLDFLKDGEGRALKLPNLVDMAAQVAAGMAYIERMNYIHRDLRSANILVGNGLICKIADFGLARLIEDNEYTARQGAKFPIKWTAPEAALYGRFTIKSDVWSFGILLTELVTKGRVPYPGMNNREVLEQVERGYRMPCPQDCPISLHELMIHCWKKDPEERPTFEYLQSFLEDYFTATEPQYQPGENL

[3] = DRUGMATRIX: Calcium Channel Type L, Dihydropyridine radioligand binding (ligand: [3H] Nitrendipine); assay type: cell membranes, Rattus norvegicus, Wistar, Cerebral cortex, Membrane; conditions: Not Active = under 50% inhibition at 10 µM
Carbonic anhydrase 2 = Carbonic anhydrase 2 (Homo sapiens, UniProt P00918); assay: DRUGMATRIX: Carbonic Anhydrase II enzyme inhibition (substrate: 4-Nitrophenyl acetate (4-NPA)); assay type: tissue-based; conditions: erythrocyte; Not Active = under 50% inhibition at 10 µM
Thromboxane-A synthase = molecular target: T3, Thromboxane-A synthase (Homo sapiens, UniProt P24557); assay: biochemical; assay type: tissue-based, Platelet; conditions: platelet;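 also: enzyme inhibition assay with PGH2 supplied as substrate; in other assays of this panel Not Active means under 50% inhibition at 10 µM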
T3 sequence (P24557 whole entry): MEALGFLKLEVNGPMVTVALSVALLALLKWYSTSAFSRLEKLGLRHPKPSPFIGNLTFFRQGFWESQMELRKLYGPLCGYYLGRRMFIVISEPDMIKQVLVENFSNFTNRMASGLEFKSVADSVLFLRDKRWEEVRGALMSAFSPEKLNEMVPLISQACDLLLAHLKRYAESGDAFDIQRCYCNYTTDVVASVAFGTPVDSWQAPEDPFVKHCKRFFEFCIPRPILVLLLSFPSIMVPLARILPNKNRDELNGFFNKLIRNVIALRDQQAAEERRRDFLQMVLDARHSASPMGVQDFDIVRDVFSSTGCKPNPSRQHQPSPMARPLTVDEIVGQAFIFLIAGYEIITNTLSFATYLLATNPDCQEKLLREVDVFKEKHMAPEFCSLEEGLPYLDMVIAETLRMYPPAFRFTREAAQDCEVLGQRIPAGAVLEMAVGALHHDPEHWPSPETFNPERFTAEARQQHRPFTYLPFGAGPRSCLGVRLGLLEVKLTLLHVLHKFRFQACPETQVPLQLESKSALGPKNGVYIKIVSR

CO[C@H]1/C=C/O[C@@]2(C)Oc3c(C)c(O)c4c(O)c(c(/C=N/N5CCN(C6CCCC6)CC5)c(O)c4c3C2=O)NC(=O)/C(C)=C\C=C\[C@H](C)[C@H](O)[C@@H](C)[C@@H](O)[C@@H](C)[C@H](OC(C)=O)[C@@H]1C [RIFAPENTINE]
Not Active: IC50 [1] | IC50 (Neutrophil elastase) | IC50 [2] | IC50 [3] | Ki [3] | IC50 (Carbonic anhydrase 2) | IC50 (Thromboxane-A synthase)

CCCCOc1cc(CC2CNC(=O)N2)ccc1OC (stereo not given) [RO-201724]
Not Active: IC50 [1] | IC50 (Neutrophil elastase) | IC50 [2] | IC50 [3] | Ki [3] | IC50 (Carbonic anhydrase 2) | IC50 (Thromboxane-A synthase)

CC[C@@H](C(=O)[C@@H](C)[C@@H](O)[C@H](C)[C@@H]1O[C@@H]([C@@H](CC)C(=O)O)CC[C@@H]1C)[C@H]1O[C@]2(C=C[C@@H](O)[C@]3(CC[C@@](C)([C@H]4CC[C@](O)(CC)[C@H](C)O4)O3)O2)[C@H](C)C[C@@H]1C [SALINOMYCIN]
Not Active: IC50 [1] | IC50 (Neutrophil elastase) | IC50 [2] | IC50 [3] | Ki [3] | IC50 (Carbonic anhydrase 2) | IC50 (Thromboxane-A synthase)

O=C(Oc1ccccc1C(=O)O)c1ccccc1O [SALSALATE]
Not Active: IC50 [1] | IC50 (Neutrophil elastase) | IC50 [2] | IC50 [3] | Ki [3] | IC50 (Carbonic anhydrase 2) | IC50 (Thromboxane-A synthase)

O=C(O)c1cn(-c2ccc(F)cc2)c2cc(N3CCNCC3)c(F)cc2c1=O [SARAFLOXACIN]
Not Active: IC50 [1] | IC50 (Neutrophil elastase) | IC50 [2] | IC50 [3] | Ki [3] | IC50 (Carbonic anhydrase 2) | IC50 (Thromboxane-A synthase)

CC(C)NCC(O)c1ccc(NS(C)(=O)=O)cc1 (stereo not given) [SOTALOL]
Not Active: IC50 [1] | IC50 (Neutrophil elastase) | IC50 [2] | IC50 [3] | Ki [3] | IC50 (Carbonic anhydrase 2) | IC50 (Thromboxane-A synthase)

O.O.O.O.O.O.[Cl-].[Cl-].[Sr+2] [STRONTIUM CHLORIDE HEXAHYDRATE]
Not Active: IC50 [1] | IC50 (Neutrophil elastase) | IC50 [2] | IC50 [3] | Ki [3] | IC50 (Carbonic anhydrase 2) | IC50 (Thromboxane-A synthase)

O=C1C(CC[S+]([O-])c2ccccc2)C(=O)N(c2ccccc2)N1c1ccccc1 (stereo not given) [SULFINPYRAZONE]
Not Active: IC50 [1] | IC50 (Neutrophil elastase) | IC50 [2] | IC50 [3] | Ki [3] | IC50 (Carbonic anhydrase 2) | IC50 (Thromboxane-A synthase)

NC(=O)N1C(=O)/C(=C(\O)c2cccs2)c2cc(Cl)ccc21 [TENIDAP]
Not Active: IC50 [1] | IC50 (Neutrophil elastase) | IC50 [2] | IC50 [3] | Ki [3] | IC50 (Carbonic anhydrase 2) | IC50 (Thromboxane-A synthase)

COc1cc2nc(N3CCN(C(=O)C4CCCO4)CC3)nc(N)c2cc1OC (stereo not given) [TERAZOSIN]
Not Active: IC50 [1] | IC50 (Neutrophil elastase) | IC50 [2] | IC50 [3] | Ki [3] | IC50 (Carbonic anhydrase 2) | IC50 (Thromboxane-A synthase)

CN(C/C=C/C#CC(C)(C)C)Cc1cccc2ccccc12 [TERBINAFINE]
Not Active: IC50 [1] | IC50 (Neutrophil elastase) | IC50 [2] | IC50 [3] | Ki [3] | IC50 (Carbonic anhydrase 2) | IC50 (Thromboxane-A synthase)

CCCCNc1ccc(C(=O)OCCN(C)C)cc1 [TETRACAINE]
Not Active: IC50 [1] | IC50 (Neutrophil elastase) | IC50 [2] | IC50 [3] | Ki [3] | IC50 (Carbonic anhydrase 2) | IC50 (Thromboxane-A synthase)

Cn1c(=O)c2nc[nH]c2n(C)c1=O.O [THEOPHYLLINE]
Not Active: IC50 [1] | IC50 (Neutrophil elastase) | IC50 [2] | IC50 [3] | Ki [3] | IC50 (Carbonic anhydrase 2) | IC50 (Thromboxane-A synthase)

CS(=O)(=O)c1ccc([C@@H](O)[C@@H](CO)NC(=O)C(Cl)Cl)cc1 [THIAMPHENICOL]
Not Active: IC50 [1] | IC50 (Neutrophil elastase) | IC50 [2] | IC50 [3] | Ki [3] | IC50 (Carbonic anhydrase 2) | IC50 (Thromboxane-A synthase)

CCN(CC)CCNC(=O)c1cc(S(C)(=O)=O)ccc1OC [TIAPRIDE]
Not Active: IC50 [1] | IC50 (Neutrophil elastase) | IC50 [2] | IC50 [3] | Ki [3] | IC50 (Carbonic anhydrase 2) | IC50 (Thromboxane-A synthase)

Clc1ccccc1CN1CCc2sccc2C1 [TICLOPIDINE]
Not Active: IC50 [1] | IC50 (Neutrophil elastase) | IC50 [2] | IC50 [3] | Ki [3] | IC50 (Carbonic anhydrase 2) | IC50 (Thromboxane-A synthase)

NC1CCN(c2nc3c(cc2F)c(=O)c(C(=O)O)cn3-c2ccc(F)cc2F)C1 (stereo not given) [TOSUFLOXACIN]
Not Active: IC50 [1] | IC50 (Neutrophil elastase) | IC50 [2] | IC50 [3] | Ki [3] | IC50 (Carbonic anhydrase 2) | IC50 (Thromboxane-A synthase)

O=C(Nc1ccc(Br)cc1)c1cc(Br)cc(Br)c1O [TRIBROMSALAN]
Not Active: IC50 [1] | IC50 (Neutrophil elastase) | IC50 [2] | IC50 [3] | Ki [3] | IC50 (Carbonic anhydrase 2) | IC50 (Thromboxane-A synthase)

CC(c1cc2ccccc2s1)N(O)C(N)=O (stereo not given) [ZILEUTON]
Not Active: IC50 [1] | IC50 (Neutrophil elastase) | IC50 [2] | IC50 [3] | Ki [3] | IC50 (Carbonic anhydrase 2) | IC50 (Thromboxane-A synthase)

MANGANESE CHLORIDE ANHYDROUS
Not Active: IC50 [1] | Ki [1] | IC50 (Neutrophil elastase) | Ki (Neutrophil elastase) | IC50 [2] | Ki [2] | IC50 [3] | Ki [3] | IC50 (Carbonic anhydrase 2) | Ki (Carbonic anhydrase 2) | IC50 (Thromboxane-A synthase) | Ki (Thromboxane-A synthase)

— ChEMBL document CHEMBL1909046, “DrugMatrix in vitro pharmacology data”
